From patent publication US7262268B2, “Lipopeptide stereoisomers, methods for preparing same, and useful intermediates” (Cubist Pharmaceuticals, Inc., priority 2001, dated 2007)
In brackets after ≈: the same amount, converted by molar mass. Like-named read-outs stand apart in the source and are kept apart here.

Tests used:
E. faecalis = format: cell-based
Protocol: (§1) Compounds according to Formula II were tested for antimicrobial activity against a panel of organisms according to standard procedures described by the National Committee for Clinical Laboratory Standards (NCCLS document M7-A5, Vol. 20, No. 2, 2000) except that all testing was performed at 37° C. Compounds were dissolved in 100% dimethyl sulfoxide and were diluted to the final reaction concentration (0.1 μg/mL-100 μg/mL) in microbial growth media. In all cases the final concentration of dimethyl sulfoxide incubated with cells is less than or equal to 1%. For minimum inhibitory concentration (MIC) calculations, 2-fold dilutions of compounds were added to wells of a microtiter plate containing 5×10^4 bacteria cells in a final volume of 100 μL of media (Mueller-Hinton Broth supplemented with 50 mg/L Ca^2+). The optical densities (OD) of the bacterial cells, which measures bacterial cell growth and proliferation, were measured using a commercial plate reader. The MIC value is defined as the lowest compound concentration inhibiting growth of the test organism.

S. aureus = format: cell-based
Protocol: as §1

[1] = Mueller-Hinton Broth supplemented with 50 mg/L Ca2+, 37° C., 2-fold dilutions

SMILES	MIC (μg/ml) E. faecalis (E. faecalis)	MIC (μg/ml) S. aureus (S. aureus)	MIC (μg/ml) E. faecalis (E. faecalis; [1])	MIC (μg/ml) S. aureus (S. aureus; [1])
CCCCCCCCCC(=O)N[C@@H](Cc1c[nH]c2ccccc12)C(=O)N[C@H](CC(N)=O)C(=O)N[C@@H](CC(=O)O)C(=O)N[C@@H]1C(=O)NCC(=O)N[C@@H](CCCN)C(=O)N[C@@H](CC(=O)O)C(=O)N[C@H](C)C(=O)N[C@@H](CC(=O)O)C(=O)NCC(=O)N[C@H](CO)C(=O)N[C@@H]([C@H](C)CC(=O)O)C(=O)N[C@@H](CC(=O)c2ccccc2N)C(=O)O[C@@H]1C [Daptomycin]	6.26 µg/mL (≈ 3.86 µM)	0.78 µg/mL (≈ 0.481 µM)	–	–
CCCCCCCCCC(=O)N[C@@H](Cc1c[nH]c2ccccc12)C(=O)N[C@@H](CC(N)=O)C(=O)N[C@@H](CC(=O)O)C(=O)N[C@@H]1C(=O)NCC(=O)N[C@@H](CCCN)C(=O)N[C@@H](CC(=O)O)C(=O)N[C@H](C)C(=O)N[C@@H](CC(=O)O)C(=O)NCC(=O)N[C@H](CO)C(=O)N[C@@H](C(C)CC(=O)O)C(=O)N[C@@H](CC(=O)c2ccccc2N)C(=O)O[C@@H]1C (stereo partly shown) [Compound HH]	–	–	100 µg/mL (≈ 61.7 µM)	6.25 µg/mL (≈ 3.86 µM)
